Patent US20100048710A1, “Methods and Compositions for Modulating Muscle Fat in Livestock” (priority 2006, published 2010)
“Also recorded” adds a separate entry of the source.

Legend:
Assay type in all cases: cell-based
[1] = tested on: bovine heterogeneous preadipocyte cultures from intramuscular (IM) adipose tissue; test: GPDH activity in heterogeneous bovine IM preadipocytes, 12 day exposure with DEX (Example 4, FIG. 3)
Method: (§1) Preadipocytes from IM and SC adipose tissue were isolated using a modification of Forest et al., 1987, Exp. Cell Res. 168:218-232. Cells were seeded at a density of 4,160 cells/cm^2 in 35 mm cell culture wells in DMEM with 5.5 mM glucose, supplemented with 100 units/ml penicillin G, 0.1 mg/ml streptomycin sulfate, 0.25 μg/ml amphotericin B, 0.05 mg/ml gentamicin, 33 μM biotin, 17 μM pantothenate, 200 μM ascorbate, 1 mM octanoate, and 10% fetal bovine serum. The cells were grown in a 37° C./5% CO2 incubator. Growth media was replaced every two days until the cells reached confluency (approximately 4 days), at which point the cells were washed twice with phosphate buffered saline (PBS) and differentiation treatments were applied. […]
(§2) Glycerol-3-phosphate dehydrogenase (GPDH) activity was quantified biochemically by measuring GPDH enzyme activity using a modification of a previously published method (Adams et al., J. Clin. Invest. 100:3149-3153).
(§3) Media was changed every two days as previously described until day 12. Adipogenesis was quantitated by measuring GPDH activity.
(§4) Data were analyzed using the mixed model procedure of SAS (SAS, Cary, N.C.). […] When main effects were significant (P<0.05), differences between means were evaluated utilizing Tukey's multiple comparison test. […]

[2] = tested on: bovine preadipocytes isolated from intramuscular (IM) adipose tissue; test: GPDH activity in bovine IM preadipocytes, 48 h exposure to DEX and IBU (Example 3, FIG. 2); details: 48 hours with 25 nM DEX
Method: (§6) The cells were grown in a 37° C./5% CO2 incubator. Growth media was replaced every two days until the cells reached confluency (approximately 4 days), at which point the cells were washed twice with phosphate buffered saline (PBS) and differentiation treatments were applied. The differentiation medium consisted of DMEM with 5.5 mM glucose, 100 units/ml penicillin G, 0.1 mg/ml streptomycin sulfate, 0.25 μg/ml amphotericin B, 0.05 mg/ml gentamicin, 33 μM biotin, 17 μM pantothenate, 200 μM ascorbate, 280 nM bovine insulin, and 5 μl/ml bovine serum lipids (Ex-Cyte, Serologicals Corp., Norcross, Ga.). After 48 hours of differentiation media exposure, the cells were washed twice with PBS and differentiation media was replaced every two days for 10 days. […] After treatment for 48 hours, media was changed as previously described until day 10. Cells from two beef steers were used, and duplicates of each steer treatment were done. Adipogenesis was quantitated by measuring GPDH activity. Data were analyzed using the mixed model procedure of SAS (SAS, Cary, N.C.). In all experiments, pooled cells from two wells of a 6 well (35 mm) plate were considered the experimental unit. When main effects were significant (P<0.05), differences between means were evaluated utilizing Tukey's multiple comparison test.

[3] = tested on: bovine preadipocytes isolated from subcutaneous (SC) adipose tissue; test: GPDH activity in bovine SC preadipocytes, 48 h exposure to DEX and IBU (Example 3, FIG. 2); details: IBU for 48 hours with 25 nM DEX
Method: as §6

[4] = tested on: Heterogeneous IM preadipocytes; test: GPDH activity in heterogeneous bovine IM preadipocytes, IBU, aspirin or indomethacin for 12 days (Example 5)
Method: (§5) Preadipocytes from IM and SC adipose tissue were isolated using a modification of Forest et al., 1987, Exp. Cell Res. 168:218-232. Cells were seeded at a density of 4,160 cells/cm^2 in 35 mm cell culture wells in DMEM with 5.5 mM glucose, supplemented with 100 units/ml penicillin G, 0.1 mg/ml streptomycin sulfate, 0.25 μg/ml amphotericin B, 0.05 mg/ml gentamicin, 33 μM biotin, 17 μM pantothenate, 200 μM ascorbate, 1 mM octanoate, and 10% fetal bovine serum. The cells were grown in a 37° C./5% CO2 incubator. Growth media was replaced every two days until the cells reached confluency (approximately 4 days), at which point the cells were washed twice with phosphate buffered saline (PBS) and differentiation treatments were applied. The differentiation medium consisted of DMEM with 5.5 mM glucose, 100 units/ml penicillin G, 0.1 mg/ml streptomycin sulfate, 0.25 μg/ml amphotericin B, 0.05 mg/ml gentamicin, 33 μM biotin, 17 μM pantothenate, 200 μM ascorbate, 280 nM bovine insulin, and 5 μl/ml bovine serum lipids (Ex-Cyte, Serologicals Corp., Norcross, Ga.). After 48 hours of differentiation media exposure, the cells were washed twice with PBS and differentiation media was replaced every two days for 10 days. Glycerol-3-phosphate dehydrogenase (GPDH) activity was quantified biochemically by measuring GPDH enzyme activity using a modification of a previously published method (Adams et al., J. Clin. Invest. 100:3149-3153). […] Media was changed every two days as previously described until day 12. Adipogenesis was quantitated by measuring GPDH activity. Data were analyzed using the mixed model procedure of SAS (SAS, Cary, N.C.). In all experiments, pooled cells from two wells of a 6 well (35 mm) plate were considered the experimental unit. When main effects were significant (P<0.05), differences between means were evaluated utilizing Tukey's multiple comparison test. […] To satisfy the conditions of normality and homogeneity of variance, GPDH data were loge transformed in Example 2, and GPDH data were square root transformed in Example 3.

[5] = tested on: bovine heterogeneous preadipocyte cultures from subcutaneous (SC) adipose tissue; test: GPDH activity in heterogeneous bovine SC preadipocytes, 12 day exposure with DEX (Example 4, FIG. 3)
Method: as §1, §2, §3, §4

[6] = tested on: Heterogeneous SC preadipocytes; test: GPDH activity in heterogeneous bovine SC preadipocytes, IBU, aspirin or indomethacin for 12 days (Example 5); details: for GPDH activity versus control: P<0.001
Method: as §5

## CC(C)Cc1ccc(C(C)C(=O)O)cc1 (centres unmarked) [IBU, 2-(p-isobutylphenyl)propionic acid]
[1]; 100 μM IBU
  effect of IBU on DEX induction of differentiation (GPDH): enhanced DEX induction of differentiation
[1]; 500 μM IBU
  effect of IBU on DEX induction of differentiation (GPDH): enhanced DEX induction of differentiation
[2]; 1000 μM IBU
  effect of IBU on DEX stimulation of GPDH activity: enhanced DEX stimulation of GPDH activity
[2]; 2000 μM IBU
  effect of IBU on DEX stimulation of GPDH activity: enhanced DEX stimulation of GPDH activity
[3]
  effect of IBU on DEX stimulation of GPDH activity: did not enhance DEX stimulation of GPDH activity
[4]; IM cells, 1000 μM IBU, 12 days, absence of DEX, P=0.003
  GPDH activity versus control: higher than control
[4]; IM cells, IBU, 12 days, absence of DEX
  maximum induction of GPDH activity: 12 fold over control
[4]; IM preadipocytes, 500 μM IBU, 12 days, absence of DEX
  GPDH activity versus control: enhanced GPDH
[5]; SC cells, 100 μM IBU
  effect of IBU on DEX induction of differentiation (GPDH): enhanced DEX induction of differentiation
[5]; SC preadipocytes, 1000 μM IBU
  effect of IBU on DEX stimulation of GPDH: reduced DEX stimulation of GPDH
[6]; SC cells, IBU, 12 days, absence of DEX
  maximum induction of GPDH activity: 1.7 fold over control
[6]; SC preadipocytes, 10 μM IBU, 12 days, absence of DEX
  GPDH activity versus control: enhanced GPDH activity
[6]; SC preadipocytes, 100 μM IBU, 12 days, absence of DEX
  GPDH activity versus control: enhanced GPDH activity
[6]; SC preadipocytes, 500 μM IBU, 12 days, absence of DEX
  GPDH activity versus control: enhanced GPDH activity

## COc1ccc2c(c1)c(CC(=O)O)c(C)n2C(=O)c1ccc(Cl)cc1 [Indomethacin, indomethacin]
[4]; IM preadipocytes, 500 μM, up to 12 days
  toxicity to cells: toxic to cells
[6]; SC preadipocytes, 500 μM, up to 12 days
  toxicity to cells: toxic to cells

## CC(=O)Oc1ccccc1C(=O)O [Aspirin, aspirin]
[4]; IM preadipocytes, 500 μM, 12 days, alone
  GPDH activity, aspirin alone: did not affect GPDH activity; also recorded: did not enhance GPDH activity
[4]; IM preadipocytes, 500 μM, 12 days, with DEX
  GPDH activity, aspirin in combination with DEX: did not enhance GPDH activity
[6]; SC preadipocytes, 500 μM, 12 days, alone
  GPDH activity, aspirin alone: did not affect GPDH activity; also recorded: did not enhance GPDH activity
[6]; SC preadipocytes, 500 μM, 12 days, with DEX
  GPDH activity, aspirin in combination with DEX: did not enhance GPDH activity
